Data as given in patent US7662853B2, “Monoacetyldiacylglycerol derivative for the treatment of sepsis” (priority 2004, dated 2010).

Columns and labels:
[1] = tested on: T-cells; assay: T-cell proliferation (3H-thymidine incorporation, SI); type: cell-based, C57BL/6 mice; settings: 1 μg/ml, 7th day, CPM in sample/CPM in control
Text: Splenocytes were collected from C57BL/6 mice (provided from Asan Institute for Life Sciences Animal Lab., Seoul, Korea) spleens. Then, single cell suspensions were obtained by repeated aspiration and flushing. Red blood cells were removed using ammonium chloride and then passed through nylon wool to remove debris and clumps. T-cells were purified using magnetic bead (MACS bead, Miltenyi Biotec, bergich gladbach, Germany) containing anti-goat IgG MACS bead, Miltenyi Biotec, bergich gladbach, Germany) or anti-mouse CD4 (MACS bead, Miltenyi Biotec, bergich gladbach, Germany) or anti-mouse CD8 antibody (MACS bead, Miltenyi Biotec, bergich gladbach, Germany) (Turner and Dockrell (1996) Immunology, 87: 339-342).
T cell suspensions were suspended in Isocove's modified Dulbecco's medium (IMDM, Gibco, Grand Island, N.Y.) supplemented with 10% fetal bovine serum (referred as ‘FBS’ hereinafter) (Gibco, Grand Island, N.Y.). […] On the 6th day, cells were incubated with 1 μCi ^3H-thymidine/well for 24 hours. On the 7th day, the cells were harvested and the […] (referred as ‘SI’ hereinafter) was calculated by the following Mathematical Formula 1. SI=^3H-thymidine absorbed by wells of experimental group (CPM in sample)/^3H-thymidine absorbed by wells of control group (CPM in control) [Mathematical Formula 1]

[2] = tested on: Monocytes; assay: Monocytes proliferation (3H-thymidine incorporation, SI); type: cell-based; settings: human monocytes, 1 μg/ml, 7th day
Experimental: Monocytes were isolated from human whole blood using Histopaque 1077. And then, monocytes (5×10^6 cells/ml) were allowed to adhere to tissue culture flask for 3 hours in a 5% CO2 incubator. After 3 hours, non-adherent cells were removed and adherent cells were placed in 96-well plates in RPMI 1640 medium (GIBCO, Grand Island, N.Y.) supplemented with 10% FBS. 5×10^4 viable cells per well were cultured in 96-well plates, with 1 μg/ml of Compound 1˜5. On the 6th day, cells were incubated with 1 μCi ^3H-thymidine/well for 24 hours. On the 7th day, the cells were harvested and the incorporation of ^3H-thymidine was measured. Si was calculated by the above mentioned formula 1.

CCCCCCCC/C=C\CCCCCCCC(=O)OCC(COC(C)=O)OC(=O)CCCCCCCCCCCCCCC (centres unmarked) [Compound 1, 1-oleoyl-2-2palmitoyl-3-acetylglycerol]
SI [1]: 2.01 ± 0.43
SI (±S.E) [2]: 9.97 ± 0.10

CCCCCCCC/C=C\CCCCCCCC(=O)OC(COC(C)=O)COC(=O)CCCCCCCCCCCCCCC (centres unmarked) [Compound 2, 1-palmitoyl-2-oleoyl-3-acetylglycerol]
SI [1]: 2.03 ± 0.54
SI (±S.E) [2]: 10.42 ± 0.15

CC/C=C\C/C=C\C/C=C\CCCCCCCC(=O)OC(COC(C)=O)COC(=O)CCCCCCCCCCCCCCC (centres unmarked) [Compound 4, 1-palmitoyl-2-linolenoyl-3-acetylglycerol]
SI [1]: 1.98 ± 0.26
SI (±S.E) [2]: 10.21 ± 0.18

CCCCC/C=C\C/C=C\C/C=C\C/C=C\CCCC(=O)OC(COC(C)=O)COC(=O)CCCCCCCCCCCCCCC (centres unmarked) [Compound 5, 1-palmitoyl-2-arachidonoyl-3-acetylglycerol]
SI [1]: 2.02 ± 0.38
SI (±S.E) [2]: 9.75 ± 0.09
